# Paper PMC8175350, “Drug repurposing screens identify chemical entities for the development of COVID-19 interventions” (Nature Communications, 2021)
# “And” between values parts separate entries of the source, which are not always exact repeats. Equal values may be shown once. Read-outs that look alike come from different tables or passages of the source.
# How the values were obtained:
# [1] = system: SARS-CoV-2; assay: microbe, parasite or virus in culture; format: cell-based; conditions: for %infected: replicate wells n=1-3
# [2] = Uninfected HeLa-ACE2 24 h live/dead cytotoxicity counter screen; format: cell-based, human; conditions: human, uninfected HeLa-ACE2 cells, geomean; read-out: uninfected HeLa-ACE2 cytotoxicity CC50
# [3] = system: HeLa-ACE2 cells; assay: as above; format: cell-based, human; conditions: for cytotox: HeLa-ACE2, replicate wells n=1-3
# [4] = system: SARS-CoV-2; assay: microbe, parasite or virus in culture; format: cell-based; conditions: for %infected: Calu-3, replicate wells n=1, n=3
# [5] = system: SARS-CoV-2; assay: microbe, parasite or virus in culture; format: cell-based; conditions: for SARS-CoV-2 % infected cells: 10 µM after 1 h infection; for TOA: HeLa-ACE2, replicate wells n=1-3
# [6] = system: SARS-CoV-2; format: cell-based
# [7] = system: HeLa-ACE2 cells; assay: Total cell count in the HeLa-ACE2 TOA (time of addition) assay; format: cell-based, human; conditions: Homo sapiens, HeLa-ACE2; read-out: HeLa-ACE2 TOA cell count EC50 GeoMean
# [8] = system: Calu-3 cells; conditions: read-out: Calu-3 cell count EC50 GeoMean
# [9] = system: Calu-3 cells
# [10] = system: HeLa-ACE2 cells; assay: cells; conditions: Homo sapiens
# [11] = system: Calu-3 cells; assay: cells; conditions: Homo sapiens, Calu-3, 48 h, read-out: Calu-3 cell count Sinf Average
# [12] = in vitro; conditions: human, Calu-3 uninfected cytotoxicity CC50 GeoMean
structure (smiles),measurement,setting,value
Cc1cccc(/C=N/Nc2cc(N3CCOCC3)nc(OCCc3ccccn3)n2)c1 [Apilimod],increase in EC50 from MOI = 0.09 to MOI = 2.2,[1]; HeLa-ACE2,3.7 fold
same,EC50,"[1]; HeLa-ACE2, geomean, read-out: SARS-CoV-2 EC50",11.3 nM
same,EC50,"[1]; HeLa-ACE2, individual values of 9 independent experiments, read-out: EC50 (µM), Fig 1c",32 nM and 10 nM (2×) and 9 nM (3×) and 6 nM (2×) and 35 nM
same,%infected,"[1]; HeLa-ACE2, concentration log[M] -5.61909",-89.9366% and -97.9564% and -96.6883% and -98.5854% and -99.176% and -97.4315% and -98.076% and -88.0351% and -79.0377%
same,%infected,"[1]; HeLa-ACE2, concentration log[M] -6.09621",-87.038% and -98.4457% and -97.9148% and -98.877% and -98.5692% and -99.1064% and -97.5527% and -92.9215% and -87.0799%
same,%infected,"[1]; HeLa-ACE2, concentration log[M] -6.57334",-75.6225% and -96.1764% and -98.2769% and -98.0074% and -97.3703% and -99.7483% and -98.3422% and -89.6186% and -88.4431%
same,%infected,"[1]; HeLa-ACE2, concentration log[M] -7.05046",-82.6962% and -96.6541% and -97.5624% and -97.8117% and -96.6757% and -95.0973% and -96.8567% and -85.1569% and -75.3432%
same,%infected,"[1]; HeLa-ACE2, concentration log[M] -7.52758",-73.6156% and -84.2045% and -91.7586% and -85.2086% and -88.488% and -83.6715% and -88.6894% and -80.6843% and -66.0801%
same,%infected,"[1]; HeLa-ACE2, concentration log[M] -8.0047",-72.126% and -55.1215% and -37.7284% and -49.8809% and -50.2572% and -55.8328% and -53.8485%
same,Emax,"[1]; Severe acute respiratory syndrome coronavirus 2, HeLa-ACE2, 24 h, read-out: HeLa-ACE2 CoV-2 Sinf Average",93%
same,EC50,"[1]; Severe acute respiratory syndrome coronavirus 2, HeLa-ACE2, HeLa-ACE2, MOI 0.09, read-out: EC50",7.3 nM
same,EC50,"[1]; Severe acute respiratory syndrome coronavirus 2, HeLa-ACE2, HeLa-ACE2, MOI 0.26, read-out: EC50",13.6 nM
same,EC50,"[1]; Severe acute respiratory syndrome coronavirus 2, HeLa-ACE2, HeLa-ACE2, MOI 0.51, read-out: EC50",18.5 nM
same,EC50,"[1]; Severe acute respiratory syndrome coronavirus 2, HeLa-ACE2, HeLa-ACE2, MOI 1.1, read-out: EC50",19.6 nM
same,EC50,"[1]; Severe acute respiratory syndrome coronavirus 2, HeLa-ACE2, HeLa-ACE2, MOI 2.2, read-out: EC50",27 nM
same,EC50,"[1]; Severe acute respiratory syndrome coronavirus 2, HeLa-ACE2, HeLa-ACE2, geomean, read-out: SARS-CoV-2 EC50",11 nM
same,EC50,"[1]; Severe acute respiratory syndrome coronavirus 2, HeLa-ACE2, detail column, read-out: HeLa-ACE2 CoV-2 EC50 GeoMean",< 6.39 nM
same,Emax,"[1]; Severe acute respiratory syndrome coronavirus 2, HeLa-ACE2, of uninfected cells at the highest effective concentrations, read-out: maximal efficacy",85 to 90%
same,HeLa-ACE2 SI,"[1]; selectivity index, uninfected HeLa-ACE2 CC50 / SARS-CoV-2 EC50",> 4353.33
same,CC50 at 24 h,[2],> 11500 nM
same,cytotox,[3]; concentration log[M] -5,-15.1899 and -14.2304 and -15.9372 and -48.9424 and -19.1078 and -64.1429 and -33.3149 and -48.2124 and -41.1568
same,cytotox,[3]; concentration log[M] -5.47712,-17.5527 and -25.9243 and -24.6903 and -15.9737 and -27.2862 and -50.2857 and -23.1323 and -17.6598 and -11.2347
same,cytotox,[3]; concentration log[M] -5.95424,-21.6878 and -13.7145 and -16.6804 and -1.094 and -5.874 and -20.5714 and -18.1516 and -18.9599 and -15.1279
same,cytotox,[3]; concentration log[M] -6.43136,-15.6962 and -19.7334 and -18.8274 and -9.409 and -6.171 and -21.1429 and -10.736 and -20.585 and -14.4605
same,cytotox,[3]; concentration log[M] -6.90849,-10.4641 and -3.052 and -4.5417 and -0.2188 and 4.684 and -6.286 and -9.519 and -8.4507 and -3.003
same,cytotox,[3]; concentration log[M] -7.38561,-11.3924 and -4.944 and -1.156 and 4.012 and 4.981 and -8.571 and -7.637 and -6.609 and -5.006
same,cytotox,[3]; concentration log[M] -7.86273,2.7 and 20.6793 and 5.12 and -0.3647 and 26.8401 and -1.429 and 8.744 and -0.2167 and 1.335
same,cytotox,[3]; concentration log[M] -8.33985,2.785 and -0.6449 and 6.028 and -5.1787 and 6.3197 and -9.571 and 2.435 and -18.4182 and -5.673
same,HeLa-ACE2 uninfected cytotoxicity Sinf Average,"[3]; human, uninfected HeLa-ACE2 cells, 24 h",-100%
same,CC50,[3]; read-out: HeLa-ACE2 uninfected cytotoxicity CC50 GeoMean,> 27800 nM
same,%infected,[4]; concentration log[M] -5.00096,-58.2494% and -10.7285% and -2.646% and 11.3057% and -47.5294% and -51.353%
same,%infected,[4]; concentration log[M] -5.47808,-10.4468% and 0.966% and 9.424% and 3.404% and -12.1011% and -29.1583%
same,%infected,[4]; concentration log[M] -6.08014,2.91% and 6.263% and 12.1167% and 11.1729% and -9.57% and -12.4389%
same,%infected,[4]; concentration log[M] -6.42922,21.192% and -5.066% and 8.086% and -7.067% and 14.7327% and 9.4894%
same,%infected,[4]; concentration log[M] -6.90623,6.025% and 8.588% and -2.01% and -3.119% and -8.7% and -28.761%
same,%infected,[4]; concentration log[M] -7.50836,-9.733% and 6.842% and -19.0732% and 2.18% and 27.3224% and 13.8795%
same,%infected,[4]; concentration log[M] -7.85886,-0.02646% and -15.3004% and -8.282% and -4.911% and 23.6525% and 32.9983%
same,%infected,[4]; concentration log[M] -8.33602,-3.111% and 7.385% and 13.7435% and 0.4251% and 25.7217% and 25.5685%
same,Emax,"[4]; Severe acute respiratory syndrome coronavirus 2, Calu-3, 48 h, read-out: Calu-3 CoV-2 Sinf Average",100%
same,EC50,[4]; read-out: Calu-3 CoV-2 EC50 GeoMean,> 9380 nM
same,Calu-3 SI,"[4]; selectivity index, uninfected Calu-3 CC50 / SARS-CoV-2 EC50",> 2.42
same,SARS-CoV-2 % infected cells,[5]; 4:00:00 post infection,0.1789% and 0.1674% and 0.3723%
same,SARS-CoV-2 % infected cells,[5]; 5:00:00,0.5955% and 0.5104% and 0.3072%
same,SARS-CoV-2 % infected cells,[5]; 6:00:00,15.0073% and 13.3408% and 11.3931%
same,SARS-CoV-2 % infected cells,[5]; 7:00:00,26.4613% and 25.6934% and 26.6142%
same,SARS-CoV-2 % infected cells,[5]; 8:00:00,25.5362% and 27.3903% and 25.8074%
same,SARS-CoV-2 % infected cells,[5]; 10:00:00,26.7887% and 26.2316% and 26.281%
same,SARS-CoV-2 % infected cells,[5]; 11:00:00,30.9861% and 29.9763% and 30.0495%
same,SARS-CoV-2 % infected cells,[5]; 12:00:00,30.3761% and 30.6313% and 31.3141%
same,SARS-CoV-2 % infected cells,[5]; 24:00:00,17.8372% and 19.3932% and 18.4264%
same,activity when treatment was initiated at 1 hpi,"[5]; HeLa-ACE2, 10 µM",Loss of activity
same,TOA,[5]; concentration log[M] -5.61909,-9.8778 and -6.262 and 0.3048 and -11.9309 and -26.5472 and -5.999 and -10.1028 and 0.08491 and -22.8314
same,TOA,[5]; concentration log[M] -6.09621,1.8452 and 11.477 and 4.5258 and -10.0091 and -14.0586 and -2.797 and -23.1834 and -27.6557 and -36.518
same,TOA,[5]; concentration log[M] -6.57334,-3.994 and -3.466 and -5.79 and -4.984 and -4.372 and -2.992 and -21.4509 and 1.122 and -26.1046
same,TOA,[5]; concentration log[M] -7.05046,-6.181 and -4.5978 and -2.954 and -15.6715 and -7.849 and -0.2917 and -3.649 and -3.511 and -18.2837
same,TOA,[5]; concentration log[M] -7.52758,6.077 and -0.625 and 10.6098 and -1.822 and 4.214 and -1.579 and 5.171 and 1.731 and -77.382
same,TOA,[5]; concentration log[M] -8.0047,2.779 and 3.019 and 8.825 and -4.236 and -3.9816 and -0.9799 and 1.304 and -2.325 and -36.3674
same,TOA,[5]; concentration log[M] -8.48182,7.953 and 7.587 and 8.026 and -5.856 and -0.7172 and 2.883 and 9.017 and -1.346 and -21.1061
same,TOA,[5]; concentration log[M] -8.95894,0.4128 and 0.7327 and 13.745 and -6.2 and 7.839 and 1.622 and 7.708 and 2.325 and 1.297
same,EC50,"[5]; Severe acute respiratory syndrome coronavirus 2, HeLa-ACE2, HeLa-ACE2, fixed 10 hpi, geomean, read-out: CoV-2 TOA EC50",> 2400 nM
same,EC50,[5]; read-out: HeLa-ACE2 TOA CoV-2 EC50 GeoMean,> 9610 nM
same,effect on viral replication in ALI-HBECs,[6],did not
same,EC50,[7],> 9610 nM
same,EC50,[8],> 9980 nM
same,uninfected Calu-3 CC50,[9],> 22.719 ×÷ 1.728 (n=4) μM
same,Calu-3 uninfected cytotoxicity Sinf Average,"[9]; human, 48 h",-100%
same,Emax,"[10]; HeLa-ACE2, 24 h, read-out: HeLa-ACE2 cell count Sinf Average",100%
same,EC50,"[10]; HeLa-ACE2, read-out: cell count in infection assay EC50, HeLa-ACE2, geomean, ^↑ = increasing dose-response curve",> 2400 nM
same,Emax,[11],100%
same,CC50 at 48 h,[12],> 22700 nM
